# Results reported in patent publication US9457062B2, “Chaperonin 10-induced immunomodulation” (CBIO LIMITED, priority 2005, dated 2016).
# What was measured:
# Cpn10 promoter = Cpn10 promoter luciferase reporter (pCAT/LUC-CPN) in RAW264.7 cells; format: cell-based, mouse; conditions: for up-regulation of the Cpn10 promoter: optimal agonist concentrations (FIG. 18H): IFNγ 1 ng/ml, IL-1β 1 ng/ml, TNF-α 100 ng/ml
# From the text: Reagents. Recombinant human Cpn10 was produced to GMP specifications by BresaGen Limited (Adelaide, Aus) essentially as described previously (Johnson, B. 2005. J. Biol Chem 280:4037-4047). […] For FACS analysis, a cysteine residue was engineered onto the C-terminus of Cpn10 and labeled with AlexFluor647 (Invitrogen) according to manufacturer's instructions. […] TLR ligands and cytokines included: E. coli LPS (strain 055:B5, Sigma), E. coli ultra-pure LPS (0111:B4 Sigma), S. aureus LTA, B. subtilis LTA, S. aureus PGN, B. subtilis PGN, zymosan cell wall from S. cerevisae, poly(I:C), imiquimod R837, CpG ODN 1826 and ODN2216, GpC ODN1826 control, (all from Invivogen, San Diego, Calif.), recombinant mouse IFNγ, (Chemicon), IL-1β (PeproTech), and recombinant human TNF-α (Invivogen). Antibodies. Rabbit polyclonal antibodies were raised against Cpn10 and affinity purified at CBio. Cytometric Bead Array (CBA) Flex Sets recognizing phosphorylated signal proteins (both human and mouse) including ERK1/2 (T202/Y204), JNK1/2 (T183/Y185), p38/MAPKinase (T180/Y182), CD14, and FcBlock (CD16/CD32) were from BD. Transfection, Cell Stimulation and Promoter analysis. The pCAT/LUC-CPN promoter construct was provided by M. Ryan and N. Hoogenraad (La Trobe University, Melbourne). RAW264.7 cells were transiently transfected using GeneJuice (Novagen). After 24 h cells were harvested and cell viability assessed by trypan blue dye exclusion. Cells were seeded into 24-well plates and heat shocked (43° C. for 15 min (mild), 30 min (moderate), or 60 min (severe)) followed by recovery at 37° C. or stimulated after 18 h. Cells were washed, harvested in Cell Culture Lysis Reagent (CCLR, Promega) and firefly luciferase signal measured using the Luciferase Assay System (Promega) and the Wallac Victor 2 Multilabel Counter (Perkin-Elmer). Real-time PCR. RAW264.7 cells were seeded at 2.5×10^5/ml in sterile 24 well plates and adhered for 16-20 hrs prior to stimulation. […] Cells were assessed for viability, pooled per condition (n=4), pelleted by centrifugation and resuspended in CCLR.
# Cpn10 mRNA = Cpn10 mRNA real-time PCR in RAW264.7 cells; format: cell-based, mouse; conditions: maximal induction at 18 h, near baseline by 24 h
# RAW264.7 cells [1] = experiment: ELISA of endogenous Cpn10 in RAW264.7 culture supernatants and cell lysates; format: cell-based, mouse
# From the text: Reagents. Recombinant human Cpn10 was produced to GMP specifications by BresaGen Limited (Adelaide, Aus) essentially as described previously (Johnson, B. 2005. J. Biol Chem 280:4037-4047). […] For FACS analysis, a cysteine residue was engineered onto the C-terminus of Cpn10 and labeled with AlexFluor647 (Invitrogen) according to manufacturer's instructions. […] TLR ligands and cytokines included: E. coli LPS (strain 055:B5, Sigma), E. coli ultra-pure LPS (0111:B4 Sigma), S. aureus LTA, B. subtilis LTA, S. aureus PGN, B. subtilis PGN, zymosan cell wall from S. cerevisae, poly(I:C), imiquimod R837, CpG ODN 1826 and ODN2216, GpC ODN1826 control, (all from Invivogen, San Diego, Calif.), recombinant mouse IFNγ, (Chemicon), IL-1β (PeproTech), and recombinant human TNF-α (Invivogen). Antibodies. Rabbit polyclonal antibodies were raised against Cpn10 and affinity purified at CBio. […] After 24 h cells were harvested and cell viability assessed by trypan blue dye exclusion. […] Cells were washed, harvested in Cell Culture Lysis Reagent (CCLR, Promega) and firefly luciferase signal measured using the Luciferase Assay System (Promega) and the Wallac Victor 2 Multilabel Counter (Perkin-Elmer). […] Cells were assessed for viability, pooled per condition (n=4), pelleted by centrifugation and resuspended in CCLR.
# RAW264.7 cells [2] = test system: RAW264.7 cells
# Description: (§2) For the data shown in FIG. 34, PolyI:C (supplied by Invivogen) was dissolved in sterile saline at 5 mg/ml stored frozen at −20° C. Vials were thawed and diluted into medium. For buffer controls, the same volume and sterile saline was added to cell culture wells. […] RAW264.7 cells were grown as adherent cultures in flasks and scraped (i.e. not trypisinised) prior to seeding into 96-well plates. HeLa cells were trypsinised in the standard way prior to seeding. Cells were seeded in duplicate in a 96-well plate (5×10^3 for RAW264.7 cells and 10^4 for HeLa cells in 50 μl medium per well). After 4 h, Cpn10 was added (in 50 μl diluted in medium) and after a further 30 mins polyI:C was added (in 50 μl diluted in medium). The cells were then incubated overnight in the 96-well plates and then RRV was added (MOI=1 for RAW264.7 cells, and MOI=10 for HeLa cells in 50 μl). After 3 days, the cells were fixed, stained with crystal violet, washed, dried and dye extracted with 100% methanol and read at A595 nm as described (Antalis et al, J Exp Med 1998, 187(11):1799). […] Titrations were established to determine the dose required for induction of anti-viral resistance for RAW264.7 cells and HeLa cells.
# TLR3 = molecular target: T1, TLR3 (Mus musculus, UniProt Q99MB1); experiment: IFNβ ELISA of supernatants of RAW264.7 cells stimulated with polyI:C; format: cell-based
# T1 construct: Experiments were conducted in the murine macrophage cell line RAW264.7; endogenous in cells; host or cells: RAW264.7 / RAW264-pNifty2-LUC
# T1 sequence (Q99MB1 26-905): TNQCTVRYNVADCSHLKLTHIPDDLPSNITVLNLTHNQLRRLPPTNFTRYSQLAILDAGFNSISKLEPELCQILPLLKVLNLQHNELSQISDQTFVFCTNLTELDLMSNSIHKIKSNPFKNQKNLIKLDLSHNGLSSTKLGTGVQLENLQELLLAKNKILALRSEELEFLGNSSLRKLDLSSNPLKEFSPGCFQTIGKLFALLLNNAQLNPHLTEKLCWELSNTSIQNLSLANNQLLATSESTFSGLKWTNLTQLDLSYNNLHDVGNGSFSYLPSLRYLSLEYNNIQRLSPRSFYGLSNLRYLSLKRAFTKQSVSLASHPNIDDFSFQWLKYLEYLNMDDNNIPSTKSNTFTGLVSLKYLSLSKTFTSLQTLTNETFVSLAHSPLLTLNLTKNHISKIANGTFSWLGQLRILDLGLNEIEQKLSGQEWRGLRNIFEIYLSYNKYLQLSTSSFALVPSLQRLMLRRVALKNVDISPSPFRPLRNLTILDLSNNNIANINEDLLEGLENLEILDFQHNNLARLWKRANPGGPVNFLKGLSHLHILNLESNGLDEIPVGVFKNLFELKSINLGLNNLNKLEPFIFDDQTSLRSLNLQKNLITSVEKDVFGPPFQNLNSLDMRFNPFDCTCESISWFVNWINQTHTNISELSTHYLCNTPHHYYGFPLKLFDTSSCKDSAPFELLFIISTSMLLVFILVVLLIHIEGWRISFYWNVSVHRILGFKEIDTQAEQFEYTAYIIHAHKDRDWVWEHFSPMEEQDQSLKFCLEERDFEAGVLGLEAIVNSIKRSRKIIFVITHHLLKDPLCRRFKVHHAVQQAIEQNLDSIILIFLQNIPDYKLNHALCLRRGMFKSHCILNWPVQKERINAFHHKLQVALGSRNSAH
# Description: Briefly, RAW264.7 cells were seeded at 2×10^5 cells/well in 24 well plates and cultured overnight (37° C., 5% CO2). Recombinant human Cpn10 (at concentrations between 10 μg/ml and 200 μg/ml) or buffer was added to cells in duplicate for 2 hours followed by the addition of polyI:C (tlrl-pic, InvivoGen, San Diego, Calif.) to a final concentration of 100 μg/ml. After 24 hours, supernatants were collected and analysed for IFNβ levels using a specific ELISA according to manufacturer's instructions (Cat No. 42400-1, R&D Systems Inc, Minneapolis, Minn.).
# CD14 = molecular target: T2, CD14 (Homo sapiens, UniProt P08571); experiment: FRET with CD14 on MonoMac 6 cells; format: binding
# T2 construct: MonoMac 6 cells (a human monocytic cell line); endogenous in cells; host or cells: MonoMac 6
# T2 sequence (P08571 20-345): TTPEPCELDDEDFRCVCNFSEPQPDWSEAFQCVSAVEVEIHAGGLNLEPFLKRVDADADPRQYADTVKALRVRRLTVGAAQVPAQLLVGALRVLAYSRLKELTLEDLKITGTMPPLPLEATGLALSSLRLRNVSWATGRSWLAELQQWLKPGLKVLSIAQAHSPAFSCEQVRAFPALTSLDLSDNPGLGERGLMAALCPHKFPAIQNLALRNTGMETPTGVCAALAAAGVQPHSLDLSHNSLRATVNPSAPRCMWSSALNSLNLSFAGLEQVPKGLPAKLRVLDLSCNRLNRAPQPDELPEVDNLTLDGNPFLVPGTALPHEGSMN
# Description: (§1) Cell labeling for FRET. MonoMac 6 cells (a human monocytic cell line) were labeled with 100 μl of a mixture of donor conjugated antibody (Cy3) and acceptor conjugated antibody (Cy5). For labelling of Cpn10, an anti-Cpn10 rabbit polyclonal antibody was used. […] The cells were fixed in order to prevent potential re-organisation of the proteins during the course of the experiment. Confocal imaging. Cells were imaged on a Carl Zeiss, Inc. LSM510 confocal microscope (with an Axiovert 200 fluorescent microscope) using a 1.4 NA 63× Zeiss objective. The images were analysed using LSM 2.5 image analysis software (Carl Zeiss, Inc.). Cy3 and Cy5 were detected using the appropriate filter sets. Using typical exposure times for image acquisition (less than 5 s), no fluorescence was observed from a Cy3-labelled specimen using the Cy5 filters, nor was Cy5 fluorescence detected using the Cy3 filter sets. FRET measurements. […] In the present study, FRET was measured using a method as previously described (Kenworthy and […] (1998) Journal of Cell Biology 142: 69-84; Kenworthy and […] (1998) in Gelb, M. H. (Ed.) Methods in molecular Biology. Humana Press Inc, Totowa, N.J. pp 37-49). Briefly, samples were labeled with donor and acceptor conjugated antibodies, and energy transfer was detected as an increase in donor fluorescence (dequenching) after complete photobleaching of the acceptor molecule. […]
# TLR4 = molecular target: T3, TLR4 (Homo sapiens, UniProt O00206); experiment: FRET with TLR4 on MonoMac 6 cells; format: binding
# T3 construct: endogenous in cells; host or cells: freshly isolated human monocytes; human monocyte-derived DC
# T3 sequence (O00206 24-839): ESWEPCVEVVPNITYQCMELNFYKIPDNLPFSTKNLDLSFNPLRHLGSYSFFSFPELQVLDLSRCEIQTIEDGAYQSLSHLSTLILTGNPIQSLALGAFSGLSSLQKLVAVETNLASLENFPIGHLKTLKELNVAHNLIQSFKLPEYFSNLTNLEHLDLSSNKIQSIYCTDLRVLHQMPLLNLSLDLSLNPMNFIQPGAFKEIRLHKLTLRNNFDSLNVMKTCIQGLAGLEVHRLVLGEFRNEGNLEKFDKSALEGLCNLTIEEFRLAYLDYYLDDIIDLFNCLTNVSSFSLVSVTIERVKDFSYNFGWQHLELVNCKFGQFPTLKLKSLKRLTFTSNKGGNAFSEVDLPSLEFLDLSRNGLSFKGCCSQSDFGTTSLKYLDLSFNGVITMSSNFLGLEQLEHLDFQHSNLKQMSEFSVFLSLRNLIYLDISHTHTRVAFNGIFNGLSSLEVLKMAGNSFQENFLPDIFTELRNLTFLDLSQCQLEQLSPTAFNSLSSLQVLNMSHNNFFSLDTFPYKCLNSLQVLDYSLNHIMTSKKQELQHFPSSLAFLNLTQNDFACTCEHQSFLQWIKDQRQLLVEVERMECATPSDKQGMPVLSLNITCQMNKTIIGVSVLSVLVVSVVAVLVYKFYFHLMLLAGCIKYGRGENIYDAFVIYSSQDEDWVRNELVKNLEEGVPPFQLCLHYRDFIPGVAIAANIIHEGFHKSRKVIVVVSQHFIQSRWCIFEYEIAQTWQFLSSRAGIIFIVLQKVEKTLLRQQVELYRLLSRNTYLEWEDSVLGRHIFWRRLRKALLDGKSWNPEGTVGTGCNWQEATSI
# Description: as §1
# GM1 = experiment: FRET with GM1 (lipid rafts) on MonoMac 6 cells; format: binding, human; conditions: donor GM1
# Description: Cell labeling for FRET. MonoMac 6 cells (a human monocytic cell line) were labeled with 100 μl of a mixture of donor conjugated antibody (Cy3) and acceptor conjugated antibody (Cy5). For labelling of Cpn10, an anti-Cpn10 rabbit polyclonal antibody was used. The cells were rinsed twice in PBS/0.02% BSA, prior to fixation with 4% formaldehyde for 15 min. The cells were fixed in order to prevent potential re-organisation of the proteins during the course of the experiment. Confocal imaging. Cells were imaged on a Carl Zeiss, Inc. LSM510 confocal microscope (with an Axiovert 200 fluorescent microscope) using a 1.4 NA 63× Zeiss objective. The images were analysed using LSM 2.5 image analysis software (Carl Zeiss, Inc.). Cy3 and Cy5 were detected using the appropriate filter sets. Using typical exposure times for image acquisition (less than 5 s), no fluorescence was observed from a Cy3-labelled specimen using the Cy5 filters, nor was Cy5 fluorescence detected using the Cy3 filter sets. FRET measurements. FRET is a non-invasive imaging technique used to determine molecular proximity. […]
# In the present study, FRET was measured using a method as previously described (Kenworthy and Edidin (1998) Journal of Cell Biology 142: 69-84; Kenworthy and Edidin (1998) in Gelb, M. H. (Ed.) Methods in molecular Biology. Humana Press Inc, Totowa, N.J. pp 37-49). […]
# CXCR4 = molecular target: T4, CXCR4 (Homo sapiens, UniProt P61073); experiment: FRET with CXCR4 on MonoMac 6 cells; format: binding
# T4 construct: MonoMac 6 cells (a human monocytic cell line); endogenous in cells; host or cells: MonoMac 6
# T4 sequence (P61073 whole entry): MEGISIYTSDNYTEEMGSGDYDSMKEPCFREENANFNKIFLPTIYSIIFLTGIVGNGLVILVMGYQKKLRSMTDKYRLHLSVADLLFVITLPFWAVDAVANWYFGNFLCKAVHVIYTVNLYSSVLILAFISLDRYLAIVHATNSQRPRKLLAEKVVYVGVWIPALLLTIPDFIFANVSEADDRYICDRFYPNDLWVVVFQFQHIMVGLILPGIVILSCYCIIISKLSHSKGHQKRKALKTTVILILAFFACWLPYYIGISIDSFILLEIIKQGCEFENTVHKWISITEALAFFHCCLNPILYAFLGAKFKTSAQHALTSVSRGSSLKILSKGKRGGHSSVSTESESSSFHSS
# Description: as §1
# Hsp90 = experiment: FRET with Hsp90 on MonoMac 6 cells; format: binding, human
# Description: as §1
# Hsp70 = experiment: FRET with Hsp70 on MonoMac 6 cells; format: binding, human
# Description: as §1
# Description for HeLa cells: as §2
substance,measurement,setting,value
"IL-1β: IL-1β (PeproTech), non-TLR agonist",up-regulation of the Cpn10 promoter,Cpn10 promoter,did not induce substantial up-regulation
TNF-α,up-regulation of the Cpn10 promoter,Cpn10 promoter,did not induce substantial up-regulation
lipoteichoic acid [LTA],induction of Cpn10 mRNA,Cpn10 mRNA,concentration-dependent induction of Cpn10 mRNA
same,intracellular Cpn10 levels in cell lysates,RAW264.7 cells [1]; LTA treated vs control cells,little change in intracellular Cpn10 levels
same,increase in soluble (extracellular) Cpn10 in culture supernatants over unstimulated control cells,"RAW264.7 cells [1]; after 30 h, 100 μg/ml LTA",3 fold
same,induction of the Cpn10 promoter,"Cpn10 promoter; 24 hour stimulation, constant at 30 hours",2.7 fold
polyinosinic-polysytidilic acid [polyI:C],toxicity,HeLa cells,No such toxicity was observed
same,concentrations showing clear signs of toxicity,RAW264.7 cells [2],5000 to 10000 ng/mL
same,IFNβ released into culture supernatants,"TLR3; polyI:C at 100 μg/ml, absence of Cpn10",292 pg/mL
"GroES: E. coli homologue of Cpn10, routinely used as a negative control",E ± ΔE (%) energy transfer efficiency,CD14; MM6 cells stimulated with LPS,7 ± 0.5%
same,E ± ΔE (%) energy transfer efficiency,CD14; Unstimulated MM6 cells,8 ± 1.0%
same,E ± ΔE (%) energy transfer efficiency,TLR4; MM6 cells stimulated with LPS,8 ± 1.0%
same,E ± ΔE (%) energy transfer efficiency,TLR4; Unstimulated MM6 cells,7 ± 1.5%
same,E ± ΔE (%) energy transfer efficiency,GM1; MM6 cells stimulated with LPS,6 ± 1.0%
same,E ± ΔE (%) energy transfer efficiency,GM1; Unstimulated MM6 cells,7 ± 1.5%
same,effect on polyI:C-induced IFNβ levels in culture supernatants,"TLR3; polyI:C stimulation, 10-200 μg/ml protein",did not modulate the production of IFN-β
same,E ± ΔE (%) energy transfer efficiency,CXCR4; MM6 cells stimulated with LPS,3 ± 1.0%
same,E ± ΔE (%) energy transfer efficiency,CXCR4; Unstimulated MM6 cells,4 ± 2.0%
same,E ± ΔE (%) energy transfer efficiency,Hsp90; MM6 cells stimulated with LPS,8 ± 2.0%
same,E ± ΔE (%) energy transfer efficiency,Hsp90; Unstimulated MM6 cells,7 ± 1.5%
same,E ± ΔE (%) energy transfer efficiency,Hsp70; MM6 cells stimulated with LPS,7 ± 1.5%
same,E ± ΔE (%) energy transfer efficiency,Hsp70; Unstimulated MM6 cells,6 ± 1.0%
